The record followed here is patent US20230271954A1 (Gossamer Bio Services, Inc., priority 2020, published 2023).

One test addresses DGKα (Homo sapiens, UniProt P23743). Briefly: DGKα biochemical assay (ADP-Glo). The following applies: read-out: DGK α IC50. The procedure, abridged: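 ADP-Glo kinase assay using OAG/PS (1:2) lipid substrate, sonicated, in HEPES pH 7.0 buffer with MgCl2, CaCl2, DTT, BSA, Triton X-100. Enzyme preincubated with compound 30 min at RT; substrate with ATP (DGKα: 400 μM) added, 45 min RT. Luminescence read; % inhibition vs DMSO and no-enzyme controls.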
Background: ADP-Glo first removes unused ATP, then detects ADP through luciferase.

A further test has as its target T1, DGKζ (Homo sapiens, UniProt Q13574).
T1 construct: purchased Carna 12-110
Nature of the test: DGKζ biochemical assay (ADP-Glo). The following applies: read-out: DGK ζ IC50.

Chain of DGKα (P23743 whole entry): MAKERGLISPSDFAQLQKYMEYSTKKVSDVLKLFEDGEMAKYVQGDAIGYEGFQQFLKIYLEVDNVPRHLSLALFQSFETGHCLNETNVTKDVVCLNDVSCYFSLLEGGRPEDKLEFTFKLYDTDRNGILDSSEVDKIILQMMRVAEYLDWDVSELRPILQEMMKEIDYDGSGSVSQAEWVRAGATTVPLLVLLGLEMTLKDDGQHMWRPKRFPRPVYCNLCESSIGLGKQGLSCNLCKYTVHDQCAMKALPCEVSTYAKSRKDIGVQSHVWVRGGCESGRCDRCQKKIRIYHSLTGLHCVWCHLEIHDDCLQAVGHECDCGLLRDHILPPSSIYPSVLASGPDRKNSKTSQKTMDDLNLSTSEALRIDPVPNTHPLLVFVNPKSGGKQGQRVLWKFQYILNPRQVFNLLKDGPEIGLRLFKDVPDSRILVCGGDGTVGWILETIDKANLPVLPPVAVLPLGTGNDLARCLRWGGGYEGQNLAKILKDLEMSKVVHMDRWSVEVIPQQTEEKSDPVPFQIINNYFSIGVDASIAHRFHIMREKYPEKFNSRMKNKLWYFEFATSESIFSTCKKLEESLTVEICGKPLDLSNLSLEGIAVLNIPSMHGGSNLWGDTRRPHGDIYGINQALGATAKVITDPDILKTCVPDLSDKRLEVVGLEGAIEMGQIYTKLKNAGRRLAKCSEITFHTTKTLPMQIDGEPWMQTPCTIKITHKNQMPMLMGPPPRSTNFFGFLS
T1 sequence (Q13574 1-929 isoform Q13574-4): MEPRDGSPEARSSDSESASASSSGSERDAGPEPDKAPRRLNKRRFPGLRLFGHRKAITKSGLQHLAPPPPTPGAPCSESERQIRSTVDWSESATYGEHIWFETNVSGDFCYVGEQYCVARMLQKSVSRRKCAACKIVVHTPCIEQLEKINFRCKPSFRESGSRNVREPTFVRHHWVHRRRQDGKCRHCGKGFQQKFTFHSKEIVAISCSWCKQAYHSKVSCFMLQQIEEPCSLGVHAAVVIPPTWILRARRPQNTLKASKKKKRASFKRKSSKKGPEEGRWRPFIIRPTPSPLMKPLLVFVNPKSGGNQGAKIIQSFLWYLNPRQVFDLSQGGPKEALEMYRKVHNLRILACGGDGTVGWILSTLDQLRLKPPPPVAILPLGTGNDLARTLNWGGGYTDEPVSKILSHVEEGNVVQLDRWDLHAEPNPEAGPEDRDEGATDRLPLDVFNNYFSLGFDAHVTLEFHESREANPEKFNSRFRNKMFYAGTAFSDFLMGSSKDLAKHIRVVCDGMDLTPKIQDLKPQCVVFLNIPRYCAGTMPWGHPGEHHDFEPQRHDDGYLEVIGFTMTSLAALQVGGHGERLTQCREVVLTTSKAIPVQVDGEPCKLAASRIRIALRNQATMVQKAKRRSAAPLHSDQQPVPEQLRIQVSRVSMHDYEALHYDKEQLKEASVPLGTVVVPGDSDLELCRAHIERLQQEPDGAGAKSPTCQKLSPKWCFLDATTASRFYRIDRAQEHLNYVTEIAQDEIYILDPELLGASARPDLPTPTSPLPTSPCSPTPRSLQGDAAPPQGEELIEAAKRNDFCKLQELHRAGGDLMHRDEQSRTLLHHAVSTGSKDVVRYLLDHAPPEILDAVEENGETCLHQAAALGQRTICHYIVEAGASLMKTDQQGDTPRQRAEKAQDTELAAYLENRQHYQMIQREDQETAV

In general, IC50 refers to the concentration that inhibits the measured activity by half. Take `Cn1c(=O)cc(N(C)[C@H]2CC[C@@H](N(CC3CCC3)c3ccc(F)c(CN4CCOCC4)c3)CC2)c2nc(C#N)ccc21` [Example 175, cis-8-((-4-((cyclobutylmethyl)(4-fluoro-3-(morpholinomethyl)phenyl)amino)cyclohexyl) (methyl)amino)-5-methyl-6-oxo-5,6-dihydro-1,5-naphthyridine-2-carbonitrile]: the IC50 at DGKα and at DGKζ was 100 to 1000 nM throughout.
For the compound `Cn1c(=O)c(C#N)c(N(C)[C@H]2CC[C@@H](N(C[C@@H]3CCCOC3)c3ccc4c(c3)OCO4)CC2)c2nc(C#N)ccc21` [Example 142, cis-8-((-4-(benzo[d][1,3]dioxol-5-yl(((S)-tetrahydro-2H-pyran-3-yl)methyl)amino)cyclohexyl)(methyl)amino)-5-methyl-6-oxo-5,6-dihydro-1,5-naphthyridine-2,7-dicarbonitrile], the IC50 at DGKα and at DGKζ was 10 to 100 nM each time.
Regarding `Cn1c(=O)c(C#N)c(N(C)[C@H]2CC[C@H](N(CC3CCOC3)c3ccc(F)cc3)CC2)c2nc(C#N)ccc21` (relative stereo) [Example 56, trans-8-((4-((4-fluorophenyl)((tetrahydrofuran-3-yl)methyl)amino)cyclohexyl)(methyl)amino)-5-methyl-6-oxo-5,6-dihydro-1,5-naphthyridine-2,7-dicarbonitrile], the results for the IC50 on DGKα and on DGKζ were 10 to 100 nM and at least 1000 nM, respectively.
For the compound `Cn1c(=O)cc(N(C)[C@H]2CC[C@@H](N(CC3CCS(=O)(=O)CC3)c3ccc(F)cc3)CC2)c2nc(C#N)ccc21` [Example 211, cis-8-((4-(((1,1-dioxidotetrahydro-2H-thiopyran-4-yl)methyl)(4-fluorophenyl)amino)cyclohexyl)(methyl)amino)-5-methyl-6-oxo-5,6-dihydro-1,5-naphthyridine-2-carbonitrile], the IC50 was 10 to 100 nM on DGKα and at least 1000 nM at DGKζ.
Take `Cn1c(=O)c(C#N)c(N(C)[C@H]2CC[C@@H](N(c3ccc(F)cc3)C3CCC3)CC2)c2nc(C#N)ccc21` [Example 16]: the IC50 on DGKα is below 10 nM; at DGKζ, 100 to 1000 nM.
Consider `Cc1cc(N(CC2CCOC2)[C@H]2CC[C@@H](N(C)c3c(C#N)c(=O)n(C)c4ccc(C#N)nc34)CC2)ccc1F` (stereo partly drawn) [Example 159, cis-8-((-4-((4-fluoro-3-methylphenyl) ((tetrahydrofuran-3-yl)methyl)amino)cyclohexyl) (methyl)amino)-5-methyl-6-oxo-5,6-dihydro-1,5-naphthyridine-2,7-dicarbonitrile], for which the IC50 on DGKα and at DGKζ was 10 to 100 nM in each case.
Consider `Cn1c(=O)cc(N[C@H]2CC[C@H](N(CC3CC3)c3ccc(F)cc3)CC2)c2nc(C#N)ccc21` [Example 3R, trans-8-((4-((Cyclopropylmethyl)(4-fluorophenyl)amino)cyclohexyl)amino)-5-methyl-6-oxo-5,6-dihydro-1,5-naphthyridine-2-carbonitrile], for which the IC50 was 10 to 100 nM on DGKα and at least 1000 nM at DGKζ.
As to `Cn1c(=O)c(C#N)c(N(C)[C@H]2CC[C@H](N(CC3CC3)c3cccc(F)c3)CC2)c2nc(Cl)ccc21` [Example 23, trans-6-chloro-4-((4-((cyclopropylmethyl)(3-fluorophenyl)amino)cyclohexyl)(methyl)amino)-1-methyl-2-oxo-1,2-dihydro-1,5-naphthyridine-3-carbonitrile], the IC50 at DGKα lay within 10 to 100 nM; at DGKζ, 100 to 1000 nM.
For `Cn1c(=O)c(C#N)c(N(C)[C@H]2CC[C@@H](N(CC3CCCOC3)c3ccc4c(c3)OCO4)CC2)c2nc(C#N)ccc21` (stereo partly drawn) [Example 116, cis-8-((-4-(benzo[d][1,3]dioxol-5-yl((tetrahydro-2H-pyran-3-yl)methyl)amino)cyclohexyl)(methyl)amino)-5-methyl-6-oxo-5,6-dihydro-1,5-naphthyridine-2,7-dicarbonitrile], the IC50 on DGKα is below 10 nM; on DGKζ, 10 to 100 nM.
As for `COc1cc(N(CC2CC2)[C@H]2CC[C@@H](N(C)c3c(C#N)c(=O)n(C)c4ccc(Cl)nc34)CC2)ccc1F` [Example 32, cis-6-chloro-4-((4-((cyclopropylmethyl)(4-fluoro-3-methoxyphenyl)amino)cyclohexyl)(methyl)amino)-1-methyl-2-oxo-1,2-dihydro-1,5-naphthyridine-3-carbonitrile], the IC50 was 10 to 100 nM at DGKα and at least 1000 nM at DGKζ.
Regarding `Cn1c(=O)c(C#N)c(N(C)[C@H]2CC[C@@H](N(CC3CCC3)c3ccc4c(c3)OC(F)(F)O4)CC2)c2nc(C#N)ccc21` [Example 121, cis-8-((-4-((cyclobutylmethyl)(2,2-difluorobenzo[d] [1,3]dioxol-5-yl)amino)cyclohexyl)(methyl)amino)-5-methyl-6-oxo-5,6-dihydro-1,5-naphthyridine-2,7-dicarbonitrile], the IC50 at DGKα and on DGKζ was 10 to 100 nM each time.
On to `Cc1ccc(N(CC2CCC2)[C@H]2CC[C@H](N(C)c3c(C#N)c(=O)n(C)c4ccc(C#N)nc34)CC2)cc1` [Example 129, trans-8-((-4-((cyclobutylmethyl)(p-tolyl)amino)cyclohexyl)(methyl)amino)-5-methyl-6-oxo-5,6-dihydro-1,5-naphthyridine-2,7-dicarbonitrile], for which the IC50 at DGKα and at DGKζ was 100 to 1000 nM throughout.
In the case of `Cn1c(=O)cc(N(C)[C@H]2CC[C@H](N(CC3CC3)c3ccc4c(c3)OCO4)CC2)c2nc(C#N)ccc21` [Example 88], the half-maximal inhibitory concentration (IC50) on DGKα and on DGKζ was at least 1000 nM each time.
For the compound `Cn1c(=O)cc(N(C)[C@H]2CC[C@@H](N(CC3COCCO3)c3ccc4c(c3)OCO4)CC2)c2nc(C#N)ccc21` (stereo partly drawn) [Example 181, cis-8-((4-(((1,4-dioxan-2-yl)methyl)(benzo[d][1,3]dioxol-5-yl)amino)cyclohexyl)(methyl)amino)-5-methyl-6-oxo-5,6-dihydro-1,5-naphthyridine-2-carbonitrile], the IC50 at DGKα lay in the range of 10 to 100 nM; at DGKζ, 100 to 1000 nM.
The like results for `Cn1c(=O)c(C#N)c(N(C)[C@H]2CC[C@@H](N(CC3CC3)c3ccc4c(c3)COC4)CC2)c2nc(C#N)ccc21` [Example 193, cis-8-((4-((cyclopropylmethyl)(1,3-dihydroisobenzofuran-5-yl)amino)cyclohexyl) (methyl)amino)-5-methyl-6-oxo-5,6-dihydro-1,5-naphthyridine-2,7-dicarbonitrile] were, in that order, at least 1000 nM and at least 1000 nM.
On the same counts, the results for `Cn1c(=O)cc(N(C)[C@H]2CC[C@H](N(CC3CC3)c3cccc(F)c3)CC2)c2nc(C#N)ccc21` [Example 25, trans-8-((4-((cyclopropylmethyl)(3-fluorophenyl)amino)cyclohexyl)(methyl)amino)-5-methyl-6-oxo-5,6-dihydro-1,5-naphthyridine-2-carbonitrile] are at least 1000 nM and at least 1000 nM.
As to `Cc1ccc(N(CC2CCC2)[C@H]2CC[C@@H](N(C)c3cc(=O)n(C)c4ccc(C#N)nc34)CC2)cc1OC(F)F` [Example 147, cis-8-((-4-((cyclobutylmethyl)(3-(difluoromethoxy)-4-methylphenyl)amino)cyclohexyl)(methyl)amino)-5-methyl-6-oxo-5,6-dihydro-1,5-naphthyridine-2-carbonitrile], the IC50 at DGKα was in the range of 10 to 100 nM; on DGKζ, 100 to 1000 nM.
Consider `Cc1ccc(F)cc1N(CC1CC1)[C@H]1CC[C@H](N(C)c2c(C#N)c(=O)n(C)c3ccc(Cl)nc23)CC1` [Example 118, trans-6-chloro-4-((4-((cyclopropylmethyl)(5-fluoro-2-methylphenyl)amino)cyclohexyl)(methyl)amino)-1-methyl-2-oxo-1,2-dihydro-1,5-naphthyridine-3-carbonitrile], for which the values for the IC50 at DGKα and on DGKζ were at least 1000 nM and 100 to 1000 nM, respectively.
In the case of `Cn1c(=O)cc(N(C)[C@H]2CC[C@@H](N(CC(C)(C)CO)c3ccc(F)cc3)CC2)c2nc(C#N)ccc21` [Example 194, cis-8-((-4-((4-fluorophenyl)(3-hydroxy-2,2-dimethylpropyl)amino)cyclohexyl)(methyl)amino)-5-methyl-6-oxo-5,6-dihydro-1,5-naphthyridine-2-carbonitrile], the IC50 is 100 to 1000 nM on DGKα and at least 1000 nM on DGKζ.
The like results for `Cn1c(=O)c(C#N)c(N(C)[C@H]2CC[C@H](N(CC3CC3)c3ccc(F)cn3)CC2)c2nc(Cl)ccc21` [Example 3L, trans-6-chloro-4-((4-((cyclopropylmethyl)(5-fluoropyridin-2-yl)amino)cyclohexyl)(methyl)amino)-1-methyl-2-oxo-1,2-dihydro-1,5-naphthyridine-3-carbonitrile] were, in that order, 10 to 100 nM and 100 to 1000 nM.
As for `Cn1c(=O)cc(N(C)[C@H]2CC[C@@H](N(CC3CCOC3)c3ccc(F)c(OC(F)F)c3)CC2)c2nc(C#N)ccc21` (stereo partly drawn) [Example 156, cis-8-((-4-((3-(difluoromethoxy)-4-fluorophenyl) ((tetrahydrofuran-3-yl)methyl)amino)cyclohexyl) (methyl)amino)-5-methyl-6-oxo-5,6-dihydro-1,5-naphthyridine-2-carbonitrile], the IC50 on DGKα and at DGKζ was 100 to 1000 nM in each case.
Consider `Cc1[nH]c2ccccc2c1C(=O)N[C@H]1CC[C@@H](N(CC2CC2)c2ccccc2)CC1` [Example 4A], for which the IC50 at DGKα and at DGKζ was at least 1000 nM throughout.
For the compound `Cn1c(=O)cc(N(C)[C@H]2CC[C@@H](N(c3ccc(F)cc3)C3CC3)CC2)c2nc(C#N)ccc21` [Example 49, cis-8-((4-(cyclopropyl(4-fluorophenyl)amino)cyclohexyl)(methyl)amino)-5-methyl-6-oxo-5,6-dihydro-1,5-naphthyridine-2-carbonitrile], the IC50 at DGKα was below 10 nM; at DGKζ it was 100 to 1000 nM.
The like results for `Cn1c(=O)c(C#N)c(N(C)[C@H]2CC[C@H](N(CC3CC3)c3ccc4c(c3)OCO4)CC2)c2nc(C#N)ccc21` [Example 79] were, in that order, at least 1000 nM and 100 to 1000 nM.
